# Molecular target: GVIA high affinity site, the N-type Ca^2+ channel (Rattus norvegicus, UniProt Q02294)
# Assay type: binding
# Sequence of GVIA high affinity site, the N-type Ca^2+ channel (Q02294 whole entry, looked up): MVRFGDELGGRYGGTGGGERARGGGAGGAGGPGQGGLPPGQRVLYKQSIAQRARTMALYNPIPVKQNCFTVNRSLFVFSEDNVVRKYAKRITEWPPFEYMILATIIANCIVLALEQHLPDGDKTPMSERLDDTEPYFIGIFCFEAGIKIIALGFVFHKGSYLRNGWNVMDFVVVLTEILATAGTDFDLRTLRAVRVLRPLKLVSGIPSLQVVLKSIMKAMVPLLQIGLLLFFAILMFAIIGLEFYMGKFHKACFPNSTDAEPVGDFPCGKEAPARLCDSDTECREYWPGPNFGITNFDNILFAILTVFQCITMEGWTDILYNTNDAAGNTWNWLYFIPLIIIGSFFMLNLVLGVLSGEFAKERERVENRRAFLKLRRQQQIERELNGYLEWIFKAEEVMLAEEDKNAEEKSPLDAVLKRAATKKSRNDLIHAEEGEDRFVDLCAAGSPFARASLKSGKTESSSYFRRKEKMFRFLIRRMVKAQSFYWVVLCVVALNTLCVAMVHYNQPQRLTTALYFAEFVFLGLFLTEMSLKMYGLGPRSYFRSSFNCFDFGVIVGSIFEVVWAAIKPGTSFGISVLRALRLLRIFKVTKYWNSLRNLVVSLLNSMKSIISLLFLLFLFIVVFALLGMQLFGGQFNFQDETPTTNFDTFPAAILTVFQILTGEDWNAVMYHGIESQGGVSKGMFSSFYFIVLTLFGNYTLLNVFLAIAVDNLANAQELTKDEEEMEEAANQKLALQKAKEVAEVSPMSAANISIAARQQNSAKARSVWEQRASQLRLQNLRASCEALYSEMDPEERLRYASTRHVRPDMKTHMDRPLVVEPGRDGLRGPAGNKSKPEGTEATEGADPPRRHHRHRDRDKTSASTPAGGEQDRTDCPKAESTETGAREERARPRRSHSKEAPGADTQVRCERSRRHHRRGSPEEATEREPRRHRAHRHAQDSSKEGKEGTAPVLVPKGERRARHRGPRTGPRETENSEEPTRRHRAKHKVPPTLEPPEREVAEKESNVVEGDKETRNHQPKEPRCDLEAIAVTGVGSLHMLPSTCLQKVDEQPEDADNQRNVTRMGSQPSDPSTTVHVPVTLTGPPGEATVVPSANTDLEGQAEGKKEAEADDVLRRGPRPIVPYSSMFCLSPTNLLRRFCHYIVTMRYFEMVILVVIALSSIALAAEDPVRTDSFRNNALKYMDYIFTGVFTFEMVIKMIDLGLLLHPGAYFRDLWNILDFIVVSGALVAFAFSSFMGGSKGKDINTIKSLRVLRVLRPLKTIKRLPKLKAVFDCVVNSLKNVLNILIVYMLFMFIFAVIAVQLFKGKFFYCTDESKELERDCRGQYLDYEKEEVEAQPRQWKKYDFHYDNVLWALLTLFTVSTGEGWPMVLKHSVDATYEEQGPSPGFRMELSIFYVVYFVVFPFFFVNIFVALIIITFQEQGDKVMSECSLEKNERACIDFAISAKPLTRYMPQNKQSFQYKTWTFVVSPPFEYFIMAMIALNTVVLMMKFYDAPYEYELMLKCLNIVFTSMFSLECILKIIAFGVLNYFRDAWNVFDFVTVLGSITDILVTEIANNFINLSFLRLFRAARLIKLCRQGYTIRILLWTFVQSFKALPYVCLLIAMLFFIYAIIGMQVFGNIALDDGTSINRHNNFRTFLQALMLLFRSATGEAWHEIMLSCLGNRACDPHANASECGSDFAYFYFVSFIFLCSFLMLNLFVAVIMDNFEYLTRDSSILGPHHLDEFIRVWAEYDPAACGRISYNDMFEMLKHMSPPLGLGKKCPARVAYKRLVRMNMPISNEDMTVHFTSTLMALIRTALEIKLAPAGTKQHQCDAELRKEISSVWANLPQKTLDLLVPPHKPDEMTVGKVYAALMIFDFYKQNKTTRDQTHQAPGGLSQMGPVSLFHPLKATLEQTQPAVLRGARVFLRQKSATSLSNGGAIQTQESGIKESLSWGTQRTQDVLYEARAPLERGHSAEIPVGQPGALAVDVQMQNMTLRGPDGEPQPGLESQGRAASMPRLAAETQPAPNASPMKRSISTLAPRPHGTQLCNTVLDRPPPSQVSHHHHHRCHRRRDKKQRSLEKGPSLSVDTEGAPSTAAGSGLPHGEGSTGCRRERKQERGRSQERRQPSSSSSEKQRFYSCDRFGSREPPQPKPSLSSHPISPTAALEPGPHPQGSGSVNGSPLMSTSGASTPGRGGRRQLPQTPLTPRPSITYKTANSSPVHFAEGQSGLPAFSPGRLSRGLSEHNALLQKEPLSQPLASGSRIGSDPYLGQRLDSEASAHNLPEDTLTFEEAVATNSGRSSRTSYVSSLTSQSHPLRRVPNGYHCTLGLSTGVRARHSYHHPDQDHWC
substance,measurement,value
ω-agatoxin IVA,Competition for / displacement of 125I-GVIA binding,did not

# From patent US5591821A (priority 1993, dated 1997)
